Legend:
ECHCG = experiment: In-water applied greenhouse weed control, transplanted paddy rice system; format: in vivo, Echinochloa crusgalli (L.) Beauv.; settings: in-water application
Description: Weed seeds or nutlets of the desired test plant species were planted in puddled soil (mud) prepared by mixing a shredded, non-sterilized mineral soil (50.5 percent silt, 25.5 percent clay, and 24 percent sand, with a pH of about 7.6 and an organic matter content of about 2.9 percent) and water at a 1:1 volumetric ratio. The prepared mud was dispensed in 365 mL aliquots into 16-ounce (oz.) non-perforated plastic pots with a surface area of 86.59 square centimeters (cm^2) leaving a headspace of 3 centimeters (cm) in each pot. Mud was allowed to dry overnight prior to planting or transplanting. Rice seeds were planted in Sun Gro MetroMix® 306 planting mixture, which typically has a pH of 6.0 to 6.8 and an organic matter content of about 30 percent, in plastic plug trays. Seedlings at the second or third leaf stage of growth were transplanted into 840 mL of mud contained in 32-oz. non-perforated plastic pots with a surface area of 86.59 cm^2 4 days prior to herbicide application. The paddy was created by filling the headspace of the pots with 2.5 to 3 cm of water. […]
Treatment requirements for each compound or herbicidal component were calculated based upon the rates being tested, the concentration of active ingredient or acid equivalent in the formulation, an application volume of 2 mL per component per pot, and an application area of 86.59 cm^2 per pot.
For formulated compounds, a measured amount was placed in an individual 100 or 200 mL glass vial and was dissolved in a volume of 1.25% (v/v) Agri-Dex® crop oil concentrate to obtain application solutions. […]
The treated plants and control plants were placed in a greenhouse as described above and water was added as needed to maintain a paddy flood. After approximately 3 weeks the condition of the test plants as compared with that of the untreated plants was determined visually and scored on a scale of 0 to 100 percent where 0 corresponds to no injury or growth inhibition and 100 corresponds to complete kill. […]

BRAPP = experiment: Postemergence foliar-applied greenhouse weed control, direct-seeded rice system; format: in vivo
Text: Seeds or nutlets of the desired test plant species were planted in a soil matrix prepared by mixing a loam or sandy loam soil (e.g., 28.6 percent silt, 18.8 percent clay, and 52.6 percent sand, with a pH of about 5.8 and an organic matter content of about 1.8 percent) and calcareous grit in an 80 to 20 ratio. The soil matrix was contained in plastic pots with a volume of 1 quart and a surface area of 83.6 square centimeters (cm^2). When required to ensure good germination and healthy plants, a fungicide treatment and/or other chemical or physical treatment was applied. The plants were grown for 8-22 days in a greenhouse with an approximate 14 h photoperiod which was maintained at about 29° C. during the day and 26° C. during the night. Nutrients (Peters Excel® 15-5-15 5-Ca 2-Mg and iron chelate) were applied in the irrigation solution as needed and water was added on a regular basis. Supplemental lighting was provided with overhead metal halide 1000-Watt lamps as necessary. The plants were employed for testing when they reached the first through fourth true leaf stage.
Treatments consisted of the acid or esters of 4-amino-3-chloro-5-fluoro-6-(4-chloro-2-fluoro-3-methoxy-phenyl)pyridine-2-carboxylic acid (Compound A), each formulated as an SC (suspension concentrate), and various herbicidal components alone and in combination. Forms of compound A were applied on an acid equivalent basis.
Other herbicidal components were applied on an active ingredient basis and included diamuron formulated as an EC (emulsifiable concentrate) and oxaziclomefone (technical grade material).
Treatment requirements were calculated based upon the rates being tested, the concentration of active ingredient or acid equivalent in the formulation, and a 12 mL application volume at a rate of 187 L/ha.
For treatments comprised of formulated compounds, measured amounts of compounds were placed individually in 25 mL glass vials and diluted in a volume of 1.25% (v/v) Agri-Dex® crop oil concentrated to obtain 12× stock solutions. […] Application solutions were prepared by adding an appropriate amount of each stock solution (e.g., 1 mL) and diluted to the appropriate final concentrations with the addition of 10 mL of an aqueous mixture of 1.25% (v/v) crop oil concentrate so that the final spray solutions contained 1.25+/−0.05% (v/v) crop oil concentrate.
For treatments comprised of technical compounds, weighed amounts can be placed individually in 25 mL glass vials and dissolved in a volume of 97:3 v/v acetone/DMSO to obtain 12× stock solutions. […] Application solutions can be prepared by adding an appropriate amount of each stock solution (e.g., 1 mL) and diluted to the appropriate final concentrations with the addition of 10 mL of an aqueous mixture of 1.5% (v/v) crop oil concentrate so that the final spray solutions contain 1.25% (v/v) crop oil concentrate. When technical materials are used, the concentrated stock solutions can be added to the spray solutions so that the final acetone and DMSO concentrations of the application solutions are 16.2% and 0.5%, respectively.
For treatments comprised of formulated and technical compounds, weighed amounts of the technical materials were placed individually in 25 mL glass vials and dissolved in a volume of 97:3 v/v acetone/DMSO to obtain 12× stock solutions, and measured amounts of the formulated compounds were placed individually in 25 mL glass vials and diluted in a volume of 1.5% (v/v) crop oil concentrate or water to obtain 12× stock solutions. […] Application solutions were prepared by adding an appropriate amount of each stock solution (e.g., 1 mL) and diluted to the appropriate final concentrations with the addition of an appropriate amount of an aqueous mixture of 1.5% (v/v) crop oil concentrate so that the final spray solutions contained 1.25% (v/v) crop oil concentrate. […]

[1] = Compound A Benzyl Ester 4.38 gae/ha alone
[2] = Compound A Benzyl Ester 8.75 gae/ha alone

## COc1c(Cl)ccc(-c2nc(C(=O)OCc3ccccc3)c(Cl)c(N)c2F)c1F [Compound A Benzyl Ester]
ECHCG; [1]
  Visual Weed Control (%) - 21 DAA ECHCG Obs: 40%
ECHCG; [2]
  Visual Weed Control (%) - 21 DAA ECHCG Obs: 50%
BRAPP; [1]
  Visual Weed Control (%) - 20 DAA BRAPP Obs: 50%
BRAPP; [2]
  Visual Weed Control (%) - 20 DAA BRAPP Obs: 70%

Reference: patent US8889591B2, “Herbicidal compositions comprising 4-amino-3-chloro-5-fluoro-6-(4-chloro-2-fluoro-3-methoxyphenyl)pyridine-2-carboxylic acid or a derivative thereof and bromobutide, daimuron, oxaziclomefone or pyributicarb” (Dow Agrosciences LLC, priority 2012, dated 2014)
